Source: patent US5051417A, “Indolythiadiazines for treating heart failure” (Les Laboratoires Beecham S.A., priority 1988, dated 1991)

Legend:
canine cardiac PDE, CAM = assay: Canine cardiac PDE inhibition, CAM; format: biochemical; conditions: n in table
[1] = tested on: canine cardiac myofibrillar Ca++-dependent Mg++-ATPase; assay: Measurement of myofibrillar Ca++-dependent Mg++-ATPase activity on canine cardiac myofibrils; format: biochemical; conditions: pH 7.0, 21° C.; for max (percent change of maximal ATPase activity): pCa=5.47
Method: 1. Measurement of myofibrillar Ca++-dependent Mq++-ATPase activity The effect on myofibrillar Ca++sensitivity and on maximal activity of myofibrillar Ca++-dependent Mg++-ATPase was determined on canine cardiac myofibrils. (a) Contractile protein preparation Cardiac myofibrils free of membrane contaminants were prepared from left ventricular tissue of dog hearts using a modification of the method described by SOLARO et al, Biochem. Biophys. Acta, 245, 259-262, (1971). Before centrifugation, the heart homogenate was filtered through gauze. After Triton X-100 treatments, the myofibrillar fraction was washed once by resuspension and centrifugation in 10 volumes of 1 mM EGTA, […], 30 mM imidazole, 2 mM MgCl2, pH 7.0. The pellet was then washed three times in 10 volumes of the same buffer without EGTA. Before the last centrifugation, the suspension of myofibrils was filtered through a stainless steel sieve with 0.25 mm meshes. Myofibrils were kept in pellet overnight. Before use, the pellet was suspended in a small amount of buffer, the protein concentration was determined by the method of BRADFORD M., Anal. Biochem., 1976, 72, 248 and adjusted in order to have a concentration between 6 and 7 mg/ml. (b) Myofibrillar ATPase activity Ca++-dependent myfibrillar ATPase activity was determined at 21° C., pH 7.0, by measuring the rate of release of inorganic phosphate. All assays were performed within 24hrs. of final purification, using the method described by SOLARO and […]., 51. 290-4,(1982). Reaction mixtures (4 ml) containing 0.6-0.7 mg/ml myofibrillar protein, 80mM KCl, 20 mM imidazole, 3 mM MgCl2, 1 mM EGTA, the desired amount of CaCl2, and the indicated concentration of drug or appropriate vehicle were preincubated for 6 min. prior to assay. The amount of CaCl2 was varied between 0 and 0.9 mM and the pCa (-log free Ca++) computed using 2.514×10^6 M^-1 as the apparent affinity of Ca++for EGTA at pH 7.0. Reactions were initiated by the addition of Na2 ATP to final concentration of 2 mM. After an incubation period of 12 min., reactions were quenched by the addition of an equal volume of ice-cold 10% trichloroacetic acid. The protein was pelleted by centrifugation (2000 g, 15 min.) and Pi was assayed in the supernatant fraction using a modification of the method described by LANZETTA et al, Anal. Biochem., 100, 95-97, (1979). The following solutions were prepared: (1) 3.7% ammonium heptamolybdate in 0.12 N H2 SO4 (2) 0.074% malachite green oxalate in 1% polyvinylic alcohol. The colour reagent was prepared by mixing an equal volume of solution (1) and (2) 15 min. before the assay. For the assay, 1,700 μl of 1% H2 SO4 and 1 ml of colour reagent were added to 100 μl of sample. Colour development occurred at room temperature for 30 min. and was quenched by the addition of 200 μl of 1M tri-potassium citrate. The absorbance was measured at 620 millimicrons. The effect of each compound, tested at the indicated concentration, on the relation between pCa and percent activation was determined taking 100% for the maximum ATPase activity obrained with vehicle alone. The effect on Ca++sensitivity was quantified by measuring the shift of the pCa giving 50% of the maximal control ATPase activity. The effect on maximal ATPase activity was expressed as the percent change of ATPase activity for pCa=5.47. Mean effects on myofibrillar ATPase activity were obtained from 1 to 5 preparations, (compounds tested at 2×10^-4 M).

anaesthetised dog = assay: Cardiotonic activity in the dog (haemodynamics); format: in vivo, dog (male Beagle); conditions: i.v.
canine cardiac PDE, CGI = biological target: T1, canine cardiac PDE, CGI (Canis lupus familiaris, UniProt A0A8I3NYE0); assay: Canine cardiac PDE inhibition, CGI; format: biochemical; conditions: n in table
T1 construct: CANINE CARDIAC PDE; from tissue; host or cells: dog heart
T1 sequence (A0A8I3NYE0 1-1135): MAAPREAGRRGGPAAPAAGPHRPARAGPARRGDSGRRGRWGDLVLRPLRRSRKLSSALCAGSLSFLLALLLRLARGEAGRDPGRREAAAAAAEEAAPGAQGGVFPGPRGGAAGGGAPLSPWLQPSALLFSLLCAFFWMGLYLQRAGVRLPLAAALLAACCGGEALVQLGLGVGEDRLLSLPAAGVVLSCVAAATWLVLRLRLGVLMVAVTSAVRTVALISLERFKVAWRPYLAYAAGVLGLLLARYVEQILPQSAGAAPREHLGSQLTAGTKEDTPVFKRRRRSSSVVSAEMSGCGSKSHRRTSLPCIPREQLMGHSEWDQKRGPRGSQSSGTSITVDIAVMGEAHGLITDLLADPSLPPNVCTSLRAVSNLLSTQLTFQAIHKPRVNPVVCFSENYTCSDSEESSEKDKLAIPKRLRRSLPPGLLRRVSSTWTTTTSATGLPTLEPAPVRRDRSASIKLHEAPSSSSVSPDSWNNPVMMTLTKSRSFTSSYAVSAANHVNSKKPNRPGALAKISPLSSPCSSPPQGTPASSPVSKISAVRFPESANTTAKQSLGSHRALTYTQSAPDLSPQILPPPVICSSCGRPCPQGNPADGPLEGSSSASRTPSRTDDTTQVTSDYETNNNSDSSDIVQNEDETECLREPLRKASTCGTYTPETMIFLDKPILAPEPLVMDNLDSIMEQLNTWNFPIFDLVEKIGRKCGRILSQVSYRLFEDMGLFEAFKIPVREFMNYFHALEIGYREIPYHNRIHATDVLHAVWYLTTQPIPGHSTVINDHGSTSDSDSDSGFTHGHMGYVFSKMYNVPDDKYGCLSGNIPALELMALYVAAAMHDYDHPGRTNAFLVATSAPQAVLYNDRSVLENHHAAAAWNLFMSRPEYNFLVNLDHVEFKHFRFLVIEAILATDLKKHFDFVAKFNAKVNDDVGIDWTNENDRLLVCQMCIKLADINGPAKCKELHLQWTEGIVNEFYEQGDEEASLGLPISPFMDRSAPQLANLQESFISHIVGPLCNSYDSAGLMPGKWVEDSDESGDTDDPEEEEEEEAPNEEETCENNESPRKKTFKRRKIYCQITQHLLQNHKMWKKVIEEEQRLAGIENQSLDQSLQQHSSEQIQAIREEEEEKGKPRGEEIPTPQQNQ

Row | Compound | IC50 (canine cardiac PDE, CAM) [µM] | max (percent change of maximal ATPase activity) ([1]; 30 μM) | pCa (shift of the pCa giving 50% of the maximal control ATPase activity; Ca++ sensitivity) ([1]; 30 μM) | AoBF (anaesthetised dog; 0.1 mg/kg) | AoBP (anaesthetised dog; 0.1 mg/kg) | H.R. (anaesthetised dog; 0.1 mg/kg) | dP/dt Max (anaesthetised dog; 0.1 mg/kg) | AoBF (anaesthetised dog; 0.3 mg/kg) | AoBP (anaesthetised dog; 0.3 mg/kg) [%] | H.R. (anaesthetised dog; 0.3 mg/kg) | dP/dt Max (anaesthetised dog; 0.3 mg/kg) | AoBF (anaesthetised dog; 1.0 mg/kg) | AoBP (anaesthetised dog; 1.0 mg/kg) [%] | H.R. (anaesthetised dog; 1.0 mg/kg) | dP/dt Max (anaesthetised dog; 1.0 mg/kg) | IC50 (canine cardiac PDE, CGI) [µM] | further results
1 | CC1SC(=O)NN=C1c1ccc2c(c1)C(=NO)C(=O)N2 (stereo not shown) [Example 1, 1,3-Dihydro-5-(3,6-dihydro-6-methyl-2-oxo-2H-1,3,4-thiadiazin-5-yl)-3-hydroxyimino-2H-indol-2-one] | 7.9 | +1 ± 2% | 0.25 ± 0.07 | +8% | +4% | +13% | +31% | +16% | -9 | +30% | +54% | +33% | -20 | +55% | 128% | 0.66 | max (percent change of maximal ATPase activity) ([1]; 10 μM): +5 ± 0%; pCa (shift of the pCa giving 50% of the maximal control ATPase activity; Ca++ sensitivity) ([1]; 10 μM): 0.19 ± 0.09
2 | CON=C1C(=O)Nc2ccc(C3=NNC(=O)SC3C)cc21 (stereo not shown) [Example 2, 1,3-Dihydro-5-(3,6-dihydro-6-methyl-2-oxo-2H,1,3,4 thiadiazin-5-yl)-3-methoxyimino-2H-indol-2-one] | 6.9 | +13 ± 4% | 0.60 ± 0.11 | +8 ± 2% | +4 ± 2% | +13 ± 8% | +31 ± 9% | +16 ± 1% | -9 ± 1 | +26 ± 10% | +54 ± 20% | +33 ± 5% | -20 ± 5 | +55 ± 21% | +128 ± 56% | 1.3 | max (percent change of maximal ATPase activity) ([1]; 10 μM): +5 ± 2%; pCa (shift of the pCa giving 50% of the maximal control ATPase activity; Ca++ sensitivity) ([1]; 10 μM): 0.24 ± 0.01
3 | COC(=S)NN=C1C(=O)Nc2ccc(C3=NNC(=O)SC3C)cc21 (stereo not shown) [Example 3, O-Methyl 2-[2,3-dihydro-5-(3,6-dihydro-6-methyl-2-oxo-2H -1,3,4-thiadiazin-5-yl)-2-oxo-1H-indol-3-ylidene]-hydrazine carbothioate] | > 300 | +3 ± 3% | +0.33 ± 0.05 | -30 ± 12% | -14 ± 7% | +28 ± 6% | +17 ± 6% | -63 ± 8% | -29 ± 6 | +54 ± 11% | +70 ± 5% | -50 ± 12% | -30 ± 1 | +93 ± 7% | +126 ± 9% | 0.27 | 
4 | CC1SC(=O)NN=C1c1ccc2c(c1)C(=NNc1ccccc1)C(=O)N2 (stereo not shown) [Example 5, 5-(3,6-Dihydro-6-methyl-2-oxo-2H-1,3,4-thiadiazin-5-yl)-1H -indole-2,3-dione 3-phenylhydrazone] | > 300 |  |  | -25 ± 1% | -14 ± 6% | +8 ± 1% | +7 ± 2% | -34 ± 5% | -12 ± 3 | +18 ± 7% | +24 ± 6% | -28 ± 4% | -12 ± 1 | +19 ± 16% | +42 ± 16% | 0.13 | AoBF (anaesthetised dog; 3.0 mg/kg): -37 ± 2%; AoBP (anaesthetised dog; 3.0 mg/kg): -19 ± 3%; H.R. (anaesthetised dog; 3.0 mg/kg): +58 ± 0%; dP/dt Max (anaesthetised dog; 3.0 mg/kg): +116 ± 31%
5 | CC1SC(=O)NN=C1c1ccc2c(c1)C(=NOc1ccccc1)C(=O)N2 (stereo not shown) [Example 11, 1,3,-Dihydro-5-(3,6-dihydro-6-methyl-2-oxo-2H-1,3,4-thiadiazin-5-yl)-3-phenoxyimino-2H-indol-2-one] | > 300 | 8 ± 2% | +0.36 ± 0.05 |  |  |  |  |  |  |  |  |  |  |  |  | 0.68 | 
6 | CC1SC(=O)NN=C1c1ccc2c(c1)C(=Nc1ccc(N(C)C)cc1)C(=O)N2 (stereo not shown) [Example 14, 1,3-Dihydro-5-(3,6-dihydro-6-methyl-2-oxo-2H-1,3,4-thiadiazin-5-yl)-3-(4-dimethylaminophenylimino)-2H -indol-2-one] | 5.6 | 0 ± 3% | +0.12 ± 0.02 |  |  |  |  |  |  |  |  |  |  |  |  | 0.62 | 
7 | CC1SC(=O)NN=C1c1ccc2c(c1)C(=Cc1ccncc1)C(=O)N2 (stereo not shown) [Example 18] | 4 | -28 ± 4% | +0.04 ± 0.08 |  |  |  |  |  |  |  |  |  |  |  |  | 1.9 | 
